Laboratory results: US10975119B2, “Selective cysteine protease inhibitors and uses thereof” (Genesis Technologies Limited, priority 2011, dated 2021)
Like-named read-outs stand apart in the source and are kept apart here.

What was measured:
Format in all cases: biochemical
[1] = molecular target: T1, Caspase-7 (Homo sapiens, UniProt P55210); experiment: Caspase-7 inhibitor screening assay (BioVision kit, DEVD-AFC); settings: for inhibition at 10 µM: read-out: % Inhibition at 10 uM Casp7; for inhibition at 100 µM: read-out: % Inhibition at 100 uM Casp7
T1 construct: mixing the compounds with the respective active caspases; purchased BioVision K157-100
T1 sequence (P55210 24-198 limits assumed): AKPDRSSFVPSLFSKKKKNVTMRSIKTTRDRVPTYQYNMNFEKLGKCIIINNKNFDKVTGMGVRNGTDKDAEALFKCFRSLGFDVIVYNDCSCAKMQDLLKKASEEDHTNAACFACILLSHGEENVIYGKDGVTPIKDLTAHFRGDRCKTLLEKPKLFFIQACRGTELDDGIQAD
T1 sequence (P55210 207-303 limits assumed): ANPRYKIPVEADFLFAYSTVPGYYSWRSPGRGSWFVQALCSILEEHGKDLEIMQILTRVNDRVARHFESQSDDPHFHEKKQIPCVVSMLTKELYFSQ
Protocol: (§1) The efficacy of an array of compounds as an inhibitor of the activity of Caspases 1 through 10 were assessed by using the respective Caspase Inhibitor Drug Screening Kits (Caspase-1 Catalog #: K151-100, Caspase-2 Catalog #: K152-100, Caspase-3 Catalog #: K153-100, Caspase-4 Catalog #: K154-100, Caspase-5 Catalog #: K155-100, Caspase-6 Catalog #: K156-100, Caspase-7 Catalog #: K157-100, Caspase-8 Catalog #: K158-100, Caspase-9 Catalog #: K159-100, Caspase-10 Catalog #: K160-100, BioVision) following the instructions of the manufacturer. […] Active caspases cleaved their respective synthetic substrates to release free AFC, which was then quantified by fluorometry.
(§2) Briefly, the compounds were first tested at 2 concentrations (10 uM and 100 uM final) to determine if there is a hit. […] Each condition was tested in duplicates. […] For some samples, a smaller range of concentrations was tested depending on the % Inhibition results at 10 uM and 100 uM. Results were summarized in Tables 2, 3, and 4 herein after. Table 2 represents the IC50 values (uM) of the test compounds as inhibitors of the activity of the various caspases.
(§3) (*) RFU (no inhibitor control)—RFU (compound at a specific concentration)
(§4) RFU (no inhibitor control)

[2] = molecular target: T2, Caspase-5 (Homo sapiens, UniProt P51878); experiment: Caspase-5 inhibitor screening assay (BioVision kit, WEHD-AFC); settings: for inhibition at 10 µM: read-out: % Inhibition at 10 uM Casp5; for inhibition at 100 µM: read-out: % Inhibition at 100 uM Casp5
T2 construct: mixing the compounds with the respective active caspases; purchased BioVision K155-100
T2 sequence (P51878 137-327 limits assumed): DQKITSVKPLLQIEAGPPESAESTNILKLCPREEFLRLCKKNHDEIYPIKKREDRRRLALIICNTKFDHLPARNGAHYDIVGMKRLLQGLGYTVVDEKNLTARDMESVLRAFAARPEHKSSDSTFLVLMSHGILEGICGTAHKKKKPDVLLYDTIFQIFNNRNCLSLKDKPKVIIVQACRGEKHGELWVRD
T2 sequence (P51878 347-434 limits assumed): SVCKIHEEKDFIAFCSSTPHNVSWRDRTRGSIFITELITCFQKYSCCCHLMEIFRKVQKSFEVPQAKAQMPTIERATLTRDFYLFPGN
Protocol: as §1, §2, §3, §4

[3] = molecular target: T3, Caspase-9 (Homo sapiens, UniProt P55211); experiment: Caspase-9 inhibitor screening assay (BioVision kit, LEHD-AFC); settings: for inhibition at 10 µM: read-out: % Inhibition at 10 uM Casp9; for inhibition at 100 µM: read-out: % Inhibition at 100 uM Casp9
T3 construct: purchased BioVision K159-100
T3 sequence (P55211 1-315 limits assumed): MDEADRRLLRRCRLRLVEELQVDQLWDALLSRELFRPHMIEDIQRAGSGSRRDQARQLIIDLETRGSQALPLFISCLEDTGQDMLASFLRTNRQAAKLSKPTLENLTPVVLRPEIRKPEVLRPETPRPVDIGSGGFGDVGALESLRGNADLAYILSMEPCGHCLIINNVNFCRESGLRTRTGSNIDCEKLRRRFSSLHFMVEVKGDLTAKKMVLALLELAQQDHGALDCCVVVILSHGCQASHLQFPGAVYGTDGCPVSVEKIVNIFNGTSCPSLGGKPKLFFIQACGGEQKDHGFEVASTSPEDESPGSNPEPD
T3 sequence (P55211 331-416 limits assumed): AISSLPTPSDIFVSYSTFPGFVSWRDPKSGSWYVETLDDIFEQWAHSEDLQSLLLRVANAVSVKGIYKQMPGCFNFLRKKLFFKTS
Protocol: as §1, §2, §3, §4

[4] = molecular target: T4, Caspase-6 (Homo sapiens, UniProt P55212); experiment: Caspase-6 inhibitor screening assay (BioVision kit, VEID-AFC); settings: for inhibition at 10 µM: read-out: % Inhibition at 10 uM Casp6; for inhibition at 100 µM: read-out: % Inhibition at 100 uM Casp6; for IC50: read-out: IC50 Casp6
T4 construct: mixing the compounds with the respective active caspases; purchased BioVision K156-100
T4 sequence (P55212 24-179 limits assumed): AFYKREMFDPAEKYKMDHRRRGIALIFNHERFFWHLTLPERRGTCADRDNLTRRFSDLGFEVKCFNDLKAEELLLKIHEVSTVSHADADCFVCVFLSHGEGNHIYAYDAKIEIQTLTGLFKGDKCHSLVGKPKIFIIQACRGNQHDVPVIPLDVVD
T4 sequence (P55212 194-293 limits assumed): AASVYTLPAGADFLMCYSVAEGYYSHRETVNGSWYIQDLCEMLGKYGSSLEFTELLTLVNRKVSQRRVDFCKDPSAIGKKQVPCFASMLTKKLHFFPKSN
Protocol: as §1, §2, §3, §4

[5] = molecular target: T5, Caspase-1 (Homo sapiens, UniProt P29466); experiment: Caspase-1 inhibitor screening assay (BioVision kit, YVAD-AFC); settings: for inhibition at 10 µM: read-out: % Inhibition at 10 uM Casp1; for inhibition at 100 µM: read-out: % Inhibition at 100 uM Casp1
T5 construct: mixing the compounds with the respective active caspases; purchased BioVision K151-100
T5 sequence (P29466 120-297 limits assumed): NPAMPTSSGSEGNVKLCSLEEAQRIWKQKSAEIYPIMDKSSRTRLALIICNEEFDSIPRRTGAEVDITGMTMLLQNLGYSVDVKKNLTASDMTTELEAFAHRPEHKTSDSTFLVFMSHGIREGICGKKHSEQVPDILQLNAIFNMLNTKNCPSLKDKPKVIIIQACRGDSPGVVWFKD
T5 sequence (P29466 317-404 limits assumed): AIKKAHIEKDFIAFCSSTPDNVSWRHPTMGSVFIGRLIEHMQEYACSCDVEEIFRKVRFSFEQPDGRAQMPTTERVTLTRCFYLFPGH
Protocol: as §1, §2, §3, §4

[6] = molecular target: T6, Caspase-10 (Homo sapiens, UniProt Q92851); experiment: Caspase-10 inhibitor screening assay (BioVision kit, AEVD-AFC); settings: for inhibition at 10 µM: read-out: % Inhibition at 10 uM Casp10; for inhibition at 100 µM: read-out: % Inhibition at 100 uM Casp10
T6 construct: mixing the compounds with the respective active caspases; purchased BioVision K160-100
T6 sequence (Q92851 220-415 limits assumed): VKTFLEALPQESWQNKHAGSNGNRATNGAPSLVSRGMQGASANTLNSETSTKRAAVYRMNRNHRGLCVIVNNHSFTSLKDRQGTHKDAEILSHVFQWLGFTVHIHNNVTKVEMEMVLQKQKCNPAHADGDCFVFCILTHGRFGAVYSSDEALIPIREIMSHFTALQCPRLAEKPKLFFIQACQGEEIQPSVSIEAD
T6 sequence (Q92851 416-521 limits assumed): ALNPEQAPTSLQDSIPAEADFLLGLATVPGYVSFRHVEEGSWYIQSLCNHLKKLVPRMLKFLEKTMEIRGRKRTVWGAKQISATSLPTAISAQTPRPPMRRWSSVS
Protocol: as §1, §2, §3, §4

[7] = read-out: potency (IC50) against caspase-9
[8] = read-out: potency (IC50) against caspase-10

| Compound | inhibition at 10 µM [1] | inhibition at 100 µM ([1]; 100 uM) | IC50 ([1]; read-out: IC50 Casp7) | inhibition at 10 µM [2] | inhibition at 100 µM [2] | IC50 ([2]; read-out: IC50 Casp5) | inhibition at 10 µM [3] | inhibition at 100 µM ([3]; 100 uM) | IC50 ([3]; read-out: IC50 Casp9) | inhibition at 10 µM [4] | inhibition at 100 µM [4] | IC50 [4] | inhibition at 10 µM [5] | inhibition at 100 µM [5] | IC50 ([5]; read-out: IC50 Casp1) | inhibition at 10 µM [6] | inhibition at 100 µM ([6]; 100 uM) | IC50 ([6]; read-out: IC50 Casp10) | IC50 [3, 7] | IC50 [6, 8] | other results |
| --- | --- | --- | --- | --- | --- | --- | --- | --- | --- | --- | --- | --- | --- | --- | --- | --- | --- | --- | --- | --- | --- |
| CC(C)(C)[C@H](NC(=O)c1ccc2ncccc2n1)C(=O)N1CCCC1C(=O)N[C@H](/C=C/S(C)(=O)=O)CC(=O)O (stereo in doubt) [Compound 8, (1,5-Naphthyridine-2-carbonyl)-t-Leu-Pro-Asp methyl vinyl sulfone] | 0% | 0% | > 100 µM | 65% | 97% | 5.9 µM | 24% | 73% | 47300 nM | 2% | 1% | > 100 µM | 91% | 100% | 880 nM | 27% | 90% | 18000 nM | – | – | – |
| CC(C)(C)[C@H](NC(=O)c1ccc2ncccc2c1)C(=O)N1CCCC1C(=O)N[C@H](/C=C/S(C)(=O)=O)CC(=O)O (stereo in doubt) [Compound 10, Quinoline-6-carbonyl-t-Leu-Pro-Asp methyl vinyl sulfone] | 3% | 73% | 53.6 µM | 78% | 98% | 3 µM | 76% | 98% | 3230 nM | 0% | 0% | > 100 µM | 90% | 100% | 120 nM | 65% | 98% | 4670 nM | – | – | – |
| CC(C)(C)[C@H](NC(=O)c1ccc(N)c(Cl)c1)C(=O)N1CCCC1C(=O)N[C@H](/C=C/S(C)(=O)=O)CC(=O)O (stereo in doubt) [Compound 14, 4-amino-3-chlorobenzene carbonyl-t-Leu-Pro-Asp methyl vinyl sulfone] | 13% | 91% | 24.5 µM | 96% | 100% | 0.56 µM | 77% | 99% | 2300 nM | 3% | 30% | > 100 µM | 99% | 100% | 20 nM | 81% | 100% | 2670 nM | 2310 nM | 2670 nM | IC50 ([2]; read-out: potency (IC50) against caspase-5): 0.563 µM; IC50 ([5]; read-out: potency (IC50) against caspase-1): 19 nM |
| CC(C)(C)[C@H](NC(=O)[C@H](CC(=O)O)NC(=O)OCc1ccccc1)C(=O)N1CCCC1C(=O)N[C@H](/C=C/S(C)(=O)=O)CC(=O)O (stereo in doubt) [Compound 26, Z-Asp-t-Leu-Pro-Asp-methyl vinyl sulfone] | 99% | 100% | 0.38 µM | 50% | 91% | 9.88 µM | 95% | 100% | 660 nM | 0% | 7% | > 100 µM | 69% | 99% | 4290 nM | 99% | 100% | 160 nM | 662 nM | 161 nM | IC50 ([1]; read-out: potency (IC50) against caspase-7): 0.378 µM |
| CS(=O)(=O)/C=C/[C@H](CC(=O)O)NC(=O)C1CCCN1C(=O)[C@@H](NC(=O)[C@H](CC(=O)O)NC(=O)OCc1ccccc1)C1CC1 (stereo in doubt) [Compound 28, Z-Asp-Cyclopropylglycine-Pro-Asp-methyl vinyl sulfone] | 87% | 99% | 2.5 µM | 14% | 69% | 46.2 µM | 54% | 93% | 9070 nM | 2% | 4% | > 100 µM | 49% | 90% | 10600 nM | 82% | 99% | 2450 nM | – | – | – |
| CC(C)[C@H](NC(=O)OCc1ccccc1)C(=O)N[C@H](/C=C(\Cl)S(C)(=O)=O)CC(=O)O [Compound 2, Cbz-Val-Asp achlorovinyl methyl vinyl sulfone] | 3% | 60% | 64.4 µM | 10% | 12% | > 100 µM | 16% | 66% | 50900 nM | 1% | 19% | > 100 µM | 0% | 5% | > 100000 nM | 0% | 48% | > 100000 nM | – | – | % Inhibition at 100 uM Casp7 ([1]; 100 uM): 72%; % Inhibition at 100 uM Casp9 ([3]; 100 uM): 70%; % Inhibition at 100 uM Casp10 ([6]; 100 uM): 31% |
